{"source": "patent US20160159954A1", "about": "“POLYDENDRONS” (The Univeristy of Liverpool, priority 2013, published 2016)", "key": {"Caco-2 cells [1]": {"test_system": "Caco-2 cells", "experiment": "MTT assay cytotoxicity", "assay_type": "cell-based", "method": "(§1) Caco-2 cells were purchased from American Type Culture Collection (ATCC, USA) and maintained in Dulbecco's Modified Eagles Medium (DMEM) supplemented with 15% filtered sterile foetal bovine serum. Cells were incubated at 37° C. and 5% CO2 and were routinely sub-cultured every 4 days when 90% confluent. Cell count and viability was determined using a Countess automated cell counter (Invitrogen).\n(§2) Caco-2 cells were seeded at a density of 1.0×10^4 cells/100 μl in DMEM supplemented with 15% FBS into each well of a 96 well plate (Nunclon, Denmark) and incubated at 37° C. and 5% CO2. Cells from 4 separate flasks of biological replicates of each cell type were used (N1-4) to improve statistical power. Media was then aspirated from column 1 and replaced with media containing each polydendron or aqueous Nile Red solution at an equivalent 1 μM Nile Red concentration then diluted 1:1 in media across the plate up to column 11. Column 12 served as a negative control and consisted of media and untreated cells. Following polydendron addition, the plates were incubated for 24 hours or 120 hours at 37° C., 5% CO2 prior to assessment of cytotoxicity.\nFollowing incubation of treated plates for 24 h or 120 h, 20 μl of 5 mg ml^−1 MTT reagent was added to each well and incubated for 2 hours. Subsequently, 100 μL MTT lysis buffer (50% N—N-Dimethylformamide in water containing 20% SDS, 2.5% glacial acetic acid and 2.5% hydrochloric acid, pH 4.7) was added to each well to lyse overnight at 37° C., 5% CO2. Following incubation the absorbance of each well was read using a Tecan Genosis plate reader at 560 nm (Tecan Magellan, Austria)."}, "Caco-2 cell monolayers": {"test_system": "Caco-2 cell monolayers", "experiment": "Transcellular permeability of Nile Red across Caco-2 monolayers", "assay_type": "in vitro ADME", "conditions": "1 hour incubation", "method": "Transwells were seeded with 3.5×10^4 cells per well and propagated to a monolayer over a 21 day period, during which media in the apical and basolateral wells was changed every other day. Trans-epithelial electrical resistance (TEER) values were monitored until they were >1300Ω. 1 μM of Nile Red polydendron or 1 μM aqueous Nile Red was added to the apical chamber of 4 wells and the basolateral chamber of 4 wells to quantify transport in both Apical to Basolateral (A>B) and Basolateral to Apical (B>A) direction and sampled on an hourly basis over a 4 h time period. Apparent permeability coefficient was then determined by the amount of compound transported over time using the equation: […]\nwhere (dQ/dt) is the amount per time (nmol·sec^−1), A is the surface area of the filter and C0 is the starting concentration of the donor chamber (1 μM).\n100 μl of each collected sample was mixed with 900 μl acetone, vortexed, sonicated for 6 minutes and centrifuged at 13300 rpm for 3 minutes. The supernatant was completely dried in a vacuum centrifuge at 30° C. until the dry solid sample was left. This was reconstituted in 150 μl acetonitrile, transferred to a 96-well black walled, flat bottomed plate and measured for fluorescence intensity excitation wavelength 480 nm, emission wavelength 560 nm using a Tecan Genios plate reader (Tecan Magellan, Austria)."}, "Caco-2 cells [2]": {"test_system": "Caco-2 cells", "experiment": "ATP assay (CellTiter-Glo) cytotoxicity", "assay_type": "cell-based", "method": "as §1, §2\nFollowing incubation of treated plates for 24 h or 120 h, cells were equilibrated to room temperature for approximately 30 minutes. All but 20 μl of media was removed from each well and 20 μl CellTiter-Glo® (Promega, UK) reagent was added. All reagents were made fresh and in accordance with the manufacturer's instructions. Plates were put on an orbital shaker for 10 minutes to mix contents and allow for stabilisation of luminescence signal. Luminescence was then measured using a Tecan Genios plate reader (Tecan Magellan, Austria)."}}, "data": [{"smiles": "CCN(CC)c1ccc2nc3c4ccccc4c(=O)cc-3oc2c1", "note": "[aqueous Nile Red, Nile red]", "values": [{"measurement": "effect on metabolic turnover of Caco-2 cells (MTT)", "setting": "Caco-2 cells [1]; 24 hour incubation, compared to untreated cells, range of concentrations investigated", "value": "did not affect metabolic turnover"}, {"measurement": "effect on viability of Caco-2 cells (MTT)", "setting": "Caco-2 cells [1]; 120 hour incubation, range of concentrations investigated", "value": "did not affect the viability"}, {"measurement": "EC50, MTT assay", "setting": "Caco-2 cells [1]; Caco-2 cells, 120 hour incubation, FIG. 7", "value": "No EC50"}, {"measurement": "A > B/B > A ratio", "setting": "Caco-2 cell monolayers", "value": 3.7140}, {"measurement": "effect on ATP presence in Caco-2 cells", "setting": "Caco-2 cells [2]; 24 hour incubation, compared to untreated cells", "value": "ATP presence was not affected"}, {"measurement": "effect on viability of Caco-2 cells (ATP assay)", "setting": "Caco-2 cells [2]; 120 hour incubation, compared to untreated cells", "value": "viability was not affected"}, {"measurement": "EC50, ATP assay", "setting": "Caco-2 cells [2]; Caco-2 cells, 120 hour incubation, FIG. 9", "value": "No EC50"}]}]}
